Experimental data taken from the supplement of paper PMC8671470.
± gives the standard deviation of the averaged measurements.

Tests used:
Settings in all cases: 72 h
KU-812 [1] = experiment: cell viability (% survival relative to DMSO control, bortezomib = 0%); higher = less cytotoxic
Summary of the method: (§1)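 After 72 h at 37 °C with 5% CO2, cell viability in 384-well plates was measured by CellTiter-Glo luminescence. The plates held compounds pre-printed at 1, 10, 100, 1000 or 10000 nM in duplicate, and cells from 10 AML and 5 CML lines seeded at densities titrated to linear growth. Percent survival is the duplicate mean, normalised to vehicle as 100% and a 10 µM positive control as 0%.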

LAMA-84 [2] = experiment: as above
Summary of the method: as §1

NOMO-1 [3] = experiment: as above
Summary of the method: as §1

BV-173 [4] = experiment: as above
Summary of the method: as §1

MV4-11 [5] = experiment: as above
Summary of the method: as §1

K-562 [6] = experiment: as above
Summary of the method: as §1

KG-1 [7] = experiment: as above
Summary of the method: as §1

ML-2 [8] = experiment: as above
Summary of the method: as §1

KCL-22 [9] = experiment: as above
Summary of the method: as §1

THP-1 [10] = experiment: as above
Summary of the method: as §1

HL-60 [11] = experiment: as above
Summary of the method: as §1

MOLM-13 [12] = experiment: as above
Summary of the method: as §1

HL-60 [13] = experiment: cell viability (% survival relative to DMSO control); higher = less cytotoxic
Summary of the method: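 For each screen, HL-60 cells in RPMI 1640 with 10% FBS carried either DMSO or 100 nM of one of three metabolic inhibitors while the full library was applied at five tenfold concentrations, 1–10,000 nM, in duplicate. Plates were 384-well and were kept 72 h at 37 °C, 5% CO2. Viability, measured by CellTiter-Glo, was normalised to wells with DMSO and with 10 μM proteasome inhibitor. Where area under the curve appears, it was fitted by four-parameter log-logistic models in drc and PharmacoGx.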

HEL = test system: HEL
Summary of the method: (§2)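 The IC50 was derived from log-logistic dose–response fitting. Each of fifteen myeloid leukaemia cell lines, seeded in RPMI 1640 within its linear growth range, was exposed in 384-well plates to five tenfold doses (1 to 10,000 nM) in duplicate for 72 h at 37 °C and 5% CO2. Luminescent ATP viability readings were normalised to vehicle and to a positive control at 10 µM before four-parameter curve fitting.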

KU-812 [14] = test system: KU-812
Summary of the method: as §2

SHI-1 = test system: SHI-1
Summary of the method: as §2

LAMA-84 [15] = test system: LAMA-84
Summary of the method: as §2

NOMO-1 [16] = test system: NOMO-1
Summary of the method: as §2

Mono-Mac-6 = test system: Mono-Mac-6
Summary of the method: as §2

BV-173 [17] = test system: BV-173
Summary of the method: as §2

MV4-11 [18] = test system: MV4-11
Summary of the method: as §2

K-562 [19] = test system: K-562
Summary of the method: as §2

KG-1 [20] = test system: KG-1
Summary of the method: as §2

ML-2 [21] = test system: ML-2
Summary of the method: as §2

KCL-22 [22] = test system: KCL-22
Summary of the method: as §2

THP-1 [23] = test system: THP-1
Summary of the method: as §2

HL-60 [24] = test system: HL-60
Summary of the method: as §2

MOLM-13 [25] = test system: MOLM-13
Summary of the method: as §2

O=C1O/C(=C/Br)CCC1c1cccc2ccccc12 (stereo not given) [Bromoenol Lactone]
cell viability (KU-812 [1]; 1 nM): 98.3% | cell viability (KU-812 [1]; 10 nM): 93.3% | cell viability (KU-812 [1]; 100 nM): 102% | cell viability (KU-812 [1]; 1000 nM): 86.1% | cell viability (KU-812 [1]; 10000 nM): 45.8% | cell viability (LAMA-84 [2]; 1 nM): 101% | cell viability (LAMA-84 [2]; 10 nM): 99.2% | cell viability (LAMA-84 [2]; 100 nM): 99.9% | cell viability (LAMA-84 [2]; 1000 nM): 95.9% | cell viability (LAMA-84 [2]; 10000 nM): 74% | cell viability (NOMO-1 [3]; 1 nM): 108% | cell viability (NOMO-1 [3]; 10 nM): 100% | cell viability (NOMO-1 [3]; 100 nM): 100% | cell viability (NOMO-1 [3]; 1000 nM): 82.7% | cell viability (NOMO-1 [3]; 10000 nM): 40.4% | cell viability (BV-173 [4]; 1 nM): 98.1% | cell viability (BV-173 [4]; 10 nM): 104% | cell viability (BV-173 [4]; 100 nM): 94.8% | cell viability (BV-173 [4]; 1000 nM): 85.9% | cell viability (BV-173 [4]; 10000 nM): 24.3% | cell viability (MV4-11 [5]; 1 nM): 99% | cell viability (MV4-11 [5]; 10 nM): 106% | cell viability (MV4-11 [5]; 100 nM): 105% | cell viability (MV4-11 [5]; 1000 nM): 92.4% | cell viability (MV4-11 [5]; 10000 nM): 45.8% | cell viability (K-562 [6]; 1 nM): 102% | cell viability (K-562 [6]; 10 nM): 106% | cell viability (K-562 [6]; 100 nM): 98.1% | cell viability (K-562 [6]; 1000 nM): 93.5% | cell viability (K-562 [6]; 10000 nM): 46.9% | cell viability (KG-1 [7]; 1 nM): 97.7% | cell viability (KG-1 [7]; 10 nM): 97.7% | cell viability (KG-1 [7]; 100 nM): 101% | cell viability (KG-1 [7]; 1000 nM): 89.8% | cell viability (KG-1 [7]; 10000 nM): 56.6% | cell viability (ML-2 [8]; 1 nM): 102% | cell viability (ML-2 [8]; 10 nM): 100% | cell viability (ML-2 [8]; 100 nM): 94.6% | cell viability (ML-2 [8]; 1000 nM): 92.9% | cell viability (ML-2 [8]; 10000 nM): 59.7% | cell viability (KCL-22 [9]; 1 nM): 95.3% | cell viability (KCL-22 [9]; 10 nM): 93.1% | cell viability (KCL-22 [9]; 100 nM): 104% | cell viability (KCL-22 [9]; 1000 nM): 86.6% | cell viability (KCL-22 [9]; 10000 nM): 52.2% | cell viability (THP-1 [10]; 1 nM): 97.3% | cell viability (THP-1 [10]; 10 nM): 97.6% | cell viability (THP-1 [10]; 100 nM): 92.3% | cell viability (THP-1 [10]; 1000 nM): 81.4% | cell viability (THP-1 [10]; 10000 nM): 44.7% | cell viability (HL-60 [11]; 1 nM): 100% | cell viability (HL-60 [11]; 10 nM): 101% | cell viability (HL-60 [11]; 100 nM): 144% | cell viability (HL-60 [11]; 1000 nM): 90.7% | cell viability (HL-60 [11]; 10000 nM): 77.2% | cell viability (MOLM-13 [12]; 1 nM): 96.5% | cell viability (MOLM-13 [12]; 10 nM): 94% | cell viability (MOLM-13 [12]; 100 nM): 112% | cell viability (MOLM-13 [12]; 1000 nM): 91.5% | cell viability (MOLM-13 [12]; 10000 nM): 44.1% | cell viability (HL-60 [13]; 0.001 µM, co-treatment: AZD3965 100 nM): 95.1 ± 10% | cell viability (HL-60 [13]; 0.001 µM, co-treatment: DMSO vehicle): 100 ± 2.4% | cell viability (HL-60 [13]; 0.001 µM, co-treatment: GSK2194069 100 nM): 90.2 ± 14% | cell viability (HL-60 [13]; 0.001 µM, co-treatment: pictilisib 100 nM): 96.5 ± 35% | cell viability (HL-60 [13]; 0.01 µM, co-treatment: AZD3965 100 nM): 97 ± 6.7% | cell viability (HL-60 [13]; 0.01 µM, co-treatment: DMSO vehicle): 99.8 ± 7.1% | cell viability (HL-60 [13]; 0.01 µM, co-treatment: GSK2194069 100 nM): 92.4 ± 9.3% | cell viability (HL-60 [13]; 0.01 µM, co-treatment: pictilisib 100 nM): 106 ± 18% | cell viability (HL-60 [13]; 0.1 µM, co-treatment: AZD3965 100 nM): 98.2 ± 5.9% | cell viability (HL-60 [13]; 0.1 µM, co-treatment: DMSO vehicle): 100 ± 1.4% | cell viability (HL-60 [13]; 0.1 µM, co-treatment: GSK2194069 100 nM): 108 ± 7.8% | cell viability (HL-60 [13]; 0.1 µM, co-treatment: pictilisib 100 nM): 110 ± 9.4% | cell viability (HL-60 [13]; 1 µM, co-treatment: AZD3965 100 nM): 96.796 ± 0.025% | cell viability (HL-60 [13]; 1 µM, co-treatment: DMSO vehicle): 96.4 ± 5.3% | cell viability (HL-60 [13]; 1 µM, co-treatment: GSK2194069 100 nM): 89.2 ± 2.9% | cell viability (HL-60 [13]; 1 µM, co-treatment: pictilisib 100 nM): 101.3 ± 0.12% | cell viability (HL-60 [13]; 10 µM, co-treatment: AZD3965 100 nM): 93.5 ± 3.1% | cell viability (HL-60 [13]; 10 µM, co-treatment: DMSO vehicle): 87.9 ± 2.6% | cell viability (HL-60 [13]; 10 µM, co-treatment: GSK2194069 100 nM): 115 ± 20% | cell viability (HL-60 [13]; 10 µM, co-treatment: pictilisib 100 nM): 104 ± 13% | IC50 (cell viability) (HEL): 8.39 µM | IC50 (cell viability) (KU-812 [14]): 5.18 µM | IC50 (cell viability) (SHI-1): > 10 µM | IC50 (cell viability) (LAMA-84 [15]): > 10 µM | IC50 (cell viability) (NOMO-1 [16]): 3.55 µM | IC50 (cell viability) (Mono-Mac-6): > 10 µM | IC50 (cell viability) (BV-173 [17]): 4.15 µM | IC50 (cell viability) (MV4-11 [18]): 5.73 µM | IC50 (cell viability) (K-562 [19]): 9.03 µM | IC50 (cell viability) (KG-1 [20]): 8.59 µM | IC50 (cell viability) (ML-2 [21]): > 10 µM | IC50 (cell viability) (KCL-22 [22]): 7.07 µM | IC50 (cell viability) (THP-1 [23]): 4.53 µM | IC50 (cell viability) (HL-60 [24]): > 10 µM | IC50 (cell viability) (MOLM-13 [25]): 5.36 µM
